Source: ChEMBL document CHEMBL1268837, “Novel CGRP receptor antagonists from central amide replacements causing a reversal of preferred chirality” (Bioorg Med Chem Lett, 2010)
pKi: −log10 of the molar value.

The compounds below were run against T1, Calcitonin gene-related peptide type 1 receptor (Homo sapiens, UniProt O60894+Q16602) (assay: Binding affinity to human recombinant CGRP receptor).
T1 sequence (Q16602 whole entry, one chain of several): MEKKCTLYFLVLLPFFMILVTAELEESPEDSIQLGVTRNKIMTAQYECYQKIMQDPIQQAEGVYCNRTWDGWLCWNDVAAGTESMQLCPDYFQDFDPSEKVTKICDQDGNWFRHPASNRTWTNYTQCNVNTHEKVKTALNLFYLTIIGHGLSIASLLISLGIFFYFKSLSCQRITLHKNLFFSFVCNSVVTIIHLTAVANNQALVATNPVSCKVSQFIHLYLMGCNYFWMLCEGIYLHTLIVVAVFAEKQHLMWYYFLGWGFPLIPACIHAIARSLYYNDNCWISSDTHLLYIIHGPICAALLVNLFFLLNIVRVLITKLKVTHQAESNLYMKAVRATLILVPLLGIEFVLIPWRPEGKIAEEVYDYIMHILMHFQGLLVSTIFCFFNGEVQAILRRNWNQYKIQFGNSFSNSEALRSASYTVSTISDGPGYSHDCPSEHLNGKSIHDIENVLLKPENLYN
`CN1C(=O)NC(=O)C12Cc1cc3ccc(CN(Cc4ccccc4)C(=O)C(C)(C)C)nc3cc1C2` (stereo unspecified) gave a pKi of 8.66.
`CN1C(=O)NC(=O)C12Cc1cc3cc(CN(Cc4ccccc4)C(=O)C(C)(C)C)cnc3cc1C2` (stereo unspecified) gave a pKi of 7.46.
`CN1C(=O)NC(=O)[C@]12Cc1cc3cc(CN(Cc4ccccc4)C(=O)C(C)(C)C)cnc3cc1C2` was tested, and the pKi was 7.92.

These compounds were tested against T1, Calcitonin gene-related peptide type 1 receptor (assay: Displacement of [125I]hCGRP from human cloned CGRP receptor expressed in HEK293 cells).
Assay type: cell-based
`CC(C)(C)C(=O)N(Cc1cnc2cc3c(cc2c1)C[C@@]1(C3)C(=O)Nc2ncccc21)C[C@@H]1CCc2ccccc21` gave a pKi of 10.43.
With `CC(C)(C)C(=O)N(Cc1ccc2nc3c(cc2c1)C[C@@]1(C3)C(=O)Nc2ncccc21)[C@@H]1CCc2ccccc21` the pKi was 9.96.
With `CC(C)(C)C(=O)N(Cc1cnc2nc3c(cc2c1)C[C@@]1(C3)C(=O)Nc2ncccc21)[C@@H]1CCc2ccccc21` the pKi was 9.82.
Work on `CC(C)(C)C(=O)N(Cc1ccccc1)Cc1cnc2cc3c(cc2c1)C[C@@]1(C3)C(=O)Nc2ncccc21` yielded a pKi of 8.89.
`CC(C)(C)C(=O)N(Cc1cc(F)cc(F)c1)Cc1cnc2cc3c(cc2c1)C[C@@]1(C3)C(=O)Nc2ncccc21` was tested, and the pKi was 9.16.
Work on `C[C@H](c1ccccc1)N(Cc1cnc2cc3c(cc2c1)C[C@@]1(C3)C(=O)Nc2ncccc21)C(=O)C(C)(C)C` yielded a pKi of 10.00.
Work on `C[C@H](c1cc(F)cc(F)c1)N(Cc1cnc2cc3c(cc2c1)C[C@@]1(C3)C(=O)Nc2ncccc21)C(=O)C(C)(C)C` yielded a pKi of 9.92.
`CC1(C)CC[C@@H](c2cc(F)cc(F)c2)N(Cc2cnc3cc4c(cc3c2)C[C@@]2(C4)C(=O)Nc3ncccc32)C1=O` was tested, and the pKi was 9.52.
